Target: T1, EmCyclinD-EmCDK4/6 complex (Echinococcus multilocularis, UniProt A0A068YJR9)
T1 construct: gene EmuJ_001021000
T1 sequence (A0A068YJR9 1-711): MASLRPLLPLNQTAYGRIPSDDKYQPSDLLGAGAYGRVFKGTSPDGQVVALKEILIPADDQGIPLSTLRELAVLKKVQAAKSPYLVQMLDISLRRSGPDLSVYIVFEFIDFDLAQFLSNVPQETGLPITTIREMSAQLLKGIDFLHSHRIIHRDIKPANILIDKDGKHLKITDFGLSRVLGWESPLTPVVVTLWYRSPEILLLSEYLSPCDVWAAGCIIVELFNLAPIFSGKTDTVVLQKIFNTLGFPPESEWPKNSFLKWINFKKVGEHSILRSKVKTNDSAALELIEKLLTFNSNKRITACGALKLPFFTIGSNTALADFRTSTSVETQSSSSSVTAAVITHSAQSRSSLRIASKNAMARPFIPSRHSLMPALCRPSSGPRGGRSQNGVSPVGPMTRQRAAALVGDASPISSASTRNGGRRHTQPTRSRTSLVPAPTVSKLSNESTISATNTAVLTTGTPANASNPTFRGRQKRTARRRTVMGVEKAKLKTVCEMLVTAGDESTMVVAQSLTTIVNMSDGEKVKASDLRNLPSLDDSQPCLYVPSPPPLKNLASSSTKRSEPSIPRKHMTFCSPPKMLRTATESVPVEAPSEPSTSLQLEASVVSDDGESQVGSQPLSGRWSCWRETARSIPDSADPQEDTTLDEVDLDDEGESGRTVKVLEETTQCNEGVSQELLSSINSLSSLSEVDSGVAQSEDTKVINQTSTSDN
T1 sequence (A0A068Y4X2 1-386 partner): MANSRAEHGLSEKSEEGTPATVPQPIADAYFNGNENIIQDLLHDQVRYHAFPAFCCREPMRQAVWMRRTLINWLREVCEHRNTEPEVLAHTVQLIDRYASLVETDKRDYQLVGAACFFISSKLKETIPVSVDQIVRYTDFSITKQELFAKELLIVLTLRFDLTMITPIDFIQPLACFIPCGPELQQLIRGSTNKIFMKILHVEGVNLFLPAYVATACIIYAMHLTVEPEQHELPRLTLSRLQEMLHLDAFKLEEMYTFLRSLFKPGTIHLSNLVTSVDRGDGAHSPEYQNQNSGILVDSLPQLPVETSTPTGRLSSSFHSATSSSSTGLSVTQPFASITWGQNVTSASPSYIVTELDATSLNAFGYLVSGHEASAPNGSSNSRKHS
Details: human Rb1 substrate (3 ug); 25 uM ATP, 20 mM MgCl2, 1 mM DTT, pH 7.5, RT, 20 min

With `Nc1ncnc2c1ncn2[C@@H]1O[C@H](COP(=O)(O)OP(=O)(O)OP(=O)(O)O)[C@@H](O)[C@H]1O` [ATP] the kinase activity was “the EmCDK4/6-EmCyclinD complex displayed kinase activity against human Rb1”.
